Source: ChEMBL document CHEMBL1201862, “PubChem BioAssay data set” (2004)
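1) Cells in 96-well plates. 2) Compound, 48 h, 5 concentrations. 3) Linear interpolation between surrounding doses. 4) Unreached endpoint = highest concentration. At the GI50, growth is halved.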 The source made the active and inactive calls. Cut-off read from the data, not from the text of the source: active = GI50 up to about 1.1 µM and inactive = higher.

What was measured:
Assay in all cases: growth of human tumour cells (NCI), 48 h
CCRF-CEM = tested on: CCRF-CEM
MOLT-4 = tested on: MOLT-4
SR = tested on: SR
IGROV-1 = tested on: IGROV-1
COLO 205 = tested on: COLO 205
SF-539 = tested on: SF-539
A549 = tested on: A549
KM12 = tested on: KM12
SK-MEL-2 = tested on: SK-MEL-2
SN12C = tested on: SN12C
SK-MEL-28 = tested on: SK-MEL-28
NCI-H460 = tested on: NCI-H460
HT-29 = tested on: HT-29
CAKI-1 = tested on: CAKI-1
UACC-257 = tested on: UACC-257

| SMILES | GI50 (CCRF-CEM) | GI50 (MOLT-4) | GI50 (SR) | GI50 (IGROV-1) | GI50 (COLO 205) | GI50 (SF-539) | GI50 (A549) | GI50 (KM12) | GI50 (SK-MEL-2) | GI50 (SN12C) | GI50 (SK-MEL-28) | GI50 (NCI-H460) | GI50 (HT-29) | GI50 (CAKI-1) | GI50 (UACC-257) |
| --- | --- | --- | --- | --- | --- | --- | --- | --- | --- | --- | --- | --- | --- | --- | --- |
| COc1cc(OC)cc(-c2cc(O)c3cc4c(cc3n2)OCO4)c1 | 0.206 µM (active) | 0.364 µM (active) | 0.199 µM (active) | 0.389 µM (active) | 0.192 µM (active) | 0.173 µM (active) | 0.428 µM (active) | 0.17 µM (active) | 0.165 µM (active) | 0.367 µM (active) | 0.194 µM (active) | 0.26 µM (active) | 0.295 µM (active) | 0.309 µM (active) | 1.96 µM (inactive) |
| CC(=O)Oc1cc2c(cc1OC(C)=O)OCC(c1ccccc1)C2 (centres undefined) | 4.4 µM (inactive) | 5.85 µM (inactive) |  | 33.8 µM (inactive) | 18.1 µM (inactive) | 25.7 µM (inactive) | 13 µM (inactive) | 25.8 µM (inactive) | 27.4 µM (inactive) | 26.4 µM (inactive) | 31 µM (inactive) | 20.7 µM (inactive) | 43.5 µM (inactive) | 16.4 µM (inactive) | 14.1 µM (inactive) |
| CCP(C)(C)=O | > 100 µM (inactive) | > 100 µM (inactive) |  | > 100 µM (inactive) | > 100 µM (inactive) | > 100 µM (inactive) | > 100 µM (inactive) | > 100 µM (inactive) | > 100 µM (inactive) | > 100 µM (inactive) | > 100 µM (inactive) | > 100 µM (inactive) | > 100 µM (inactive) | > 100 µM (inactive) | > 100 µM (inactive) |
| COC(=O)C1=C(c2ccc3c(c2)OCO3)O[C@H](c2ccc3c(c2)OCO3)[C@H]1COC(C)=O | 78.9 µM (inactive) | 35.2 µM (inactive) | 32.1 µM (inactive) | 63.5 µM (inactive) | 15.3 µM (inactive) | 61.2 µM (inactive) | 46.7 µM (inactive) | 62.4 µM (inactive) | 63 µM (inactive) | 45.2 µM (inactive) | 65 µM (inactive) | 63.5 µM (inactive) | 36.2 µM (inactive) | 27.5 µM (inactive) | 55.2 µM (inactive) |
| O=c1[c-](-c2ccccc2)[se]c(-c2ccccc2)[n+]1-c1ccccc1 | 3.87 µM (inactive) | 18.8 µM (inactive) |  | 3.71 µM (inactive) | 15.5 µM (inactive) | 1.48 µM (inactive) | 16.3 µM (inactive) | 10.3 µM (inactive) | 6.55 µM (inactive) | 5.05 µM (inactive) | 9.31 µM (inactive) | 15.9 µM (inactive) | 23 µM (inactive) | 19.1 µM (inactive) | 12.8 µM (inactive) |
| COC(=O)Cc1cc(OC)c(OC)cc1Br | > 100 µM (inactive) | > 100 µM (inactive) | > 100 µM (inactive) |  | > 100 µM (inactive) |  | > 100 µM (inactive) | > 100 µM (inactive) | > 100 µM (inactive) | > 100 µM (inactive) | > 100 µM (inactive) | > 100 µM (inactive) | > 100 µM (inactive) | > 100 µM (inactive) | > 100 µM (inactive) |
| CC(C)(C)c1cc(CCC(=O)Nc2ccc(Cl)cc2)nc(NC#N)n1 | > 100 µM (inactive) | > 100 µM (inactive) |  | > 100 µM (inactive) | > 100 µM (inactive) | > 100 µM (inactive) | > 100 µM (inactive) | > 100 µM (inactive) | > 100 µM (inactive) |  | > 100 µM (inactive) | > 100 µM (inactive) | > 100 µM (inactive) | > 100 µM (inactive) | > 100 µM (inactive) |
| NC1=NS(=O)(=O)Nc2[nH]c(-c3ccccc3)nc21 | > 100 µM (inactive) | > 100 µM (inactive) | > 100 µM (inactive) | > 100 µM (inactive) | > 100 µM (inactive) | > 100 µM (inactive) | > 100 µM (inactive) | > 100 µM (inactive) | > 100 µM (inactive) | > 100 µM (inactive) | > 100 µM (inactive) | > 100 µM (inactive) | > 100 µM (inactive) |  | > 100 µM (inactive) |
| C[N+](C)(C)CC(=O)N/N=C/c1oc(-c2cccc([N+](=O)[O-])c2)c(-c2cccc([N+](=O)[O-])c2)c1[N+](=O)[O-] | 35.2 µM (inactive) | > 10 µM (inactive) | 40.1 µM (inactive) | 95.5 µM (inactive) | > 100 µM (inactive) | > 100 µM (inactive) | > 100 µM (inactive) |  | > 100 µM (inactive) | > 100 µM (inactive) | 44.3 µM (inactive) | > 100 µM (inactive) | > 100 µM (inactive) |  | > 100 µM (inactive) |
| CSc1s[s+]c(SC)c1[O-] | 8.77 µM (inactive) | 13.3 µM (inactive) | 9.95 µM (inactive) | 83.6 µM (inactive) | 27.2 µM (inactive) | 20.6 µM (inactive) | > 100 µM (inactive) | 62.4 µM (inactive) | 32.3 µM (inactive) | 22.1 µM (inactive) | 17.1 µM (inactive) | 29.3 µM (inactive) | 24.7 µM (inactive) | 20.7 µM (inactive) | 17.7 µM (inactive) |
| Cc1cc2c(cc1C)[n+]([O-])c(C(=O)C/C(=N/NC(=O)CC#N)C(=O)Nc1ccccc1C(F)(F)F)c(C)[n+]2[O-] | 25.4 µM (inactive) | 52 µM (inactive) |  | > 100 µM (inactive) | 46.1 µM (inactive) | 50.2 µM (inactive) | 35 µM (inactive) | 34 µM (inactive) | 39.5 µM (inactive) | 76 µM (inactive) | 70.8 µM (inactive) | 34.4 µM (inactive) | 49.3 µM (inactive) | 57.7 µM (inactive) | 44.6 µM (inactive) |
| N#CCc1ccc(/C(C#N)=C2/OC(=N)C(c3ccc(CC#N)cc3)C2=O)cc1 (centres undefined) | > 100 µM (inactive) | > 100 µM (inactive) |  | > 100 µM (inactive) | > 100 µM (inactive) | > 100 µM (inactive) | > 100 µM (inactive) |  | > 100 µM (inactive) | > 100 µM (inactive) | > 100 µM (inactive) | > 100 µM (inactive) | > 100 µM (inactive) | > 100 µM (inactive) | > 100 µM (inactive) |
| O=C(O)/C(=C/c1ccccc1[N+](=O)[O-])c1ccccc1 |  | > 100 µM (inactive) | > 100 µM (inactive) | > 100 µM (inactive) | > 100 µM (inactive) | > 100 µM (inactive) | > 100 µM (inactive) | > 100 µM (inactive) | > 100 µM (inactive) | > 100 µM (inactive) | > 100 µM (inactive) | > 100 µM (inactive) | > 100 µM (inactive) | > 100 µM (inactive) | > 100 µM (inactive) |
| O=C1C=C(Nc2ccc(Br)cc2)c2ccccc2C1=O | 11 µM (inactive) | 10.9 µM (inactive) | 2.54 µM (inactive) | 14.8 µM (inactive) | 17 µM (inactive) | 16 µM (inactive) | 12.7 µM (inactive) | 14.1 µM (inactive) | 15.5 µM (inactive) | 15.2 µM (inactive) | 17.2 µM (inactive) | 7.28 µM (inactive) | 17.5 µM (inactive) |  | 13.5 µM (inactive) |
| CC(C)N(C(=O)C12C3C4C1C1C2C3C41C(=O)O)C(C)C (centres undefined) | > 100 µM (inactive) | > 100 µM (inactive) |  | > 100 µM (inactive) | > 100 µM (inactive) | > 100 µM (inactive) | > 100 µM (inactive) | > 100 µM (inactive) | > 100 µM (inactive) | > 100 µM (inactive) | > 100 µM (inactive) | > 100 µM (inactive) | > 100 µM (inactive) | > 100 µM (inactive) | > 100 µM (inactive) |
| O=C(Nc1ccc(Cl)cc1Cl)OC(Cn1cncn1)c1ccc(Cl)cc1Cl (centres undefined) | 38.9 µM (inactive) | 31.6 µM (inactive) | 41.3 µM (inactive) | 16.9 µM (inactive) | 17.2 µM (inactive) | 17.9 µM (inactive) | 15.5 µM (inactive) | 17.2 µM (inactive) | 19.2 µM (inactive) | 16.9 µM (inactive) | 16.3 µM (inactive) |  | 15.2 µM (inactive) |  | 17 µM (inactive) |
| Cc1cccc2nc3cccc(C(=O)NCCN(C)C)c3nc12 | 0.627 µM (active) | 0.26 µM (active) |  | 0.525 µM (active) | 0.443 µM (active) | 0.292 µM (active) | 0.383 µM (active) | 0.641 µM (active) | 1.27 µM (inactive) | 0.339 µM (active) | 1.01 µM (active) | 0.301 µM (active) | 0.507 µM (active) | 0.482 µM (active) | 0.491 µM (active) |
| NC1=NN(c2ccccc2)C(=O)C1/C(=N\NC(=O)c1cc2ccccc2cc1O)C(=O)Nc1ccc(Cl)c(Cl)c1 (centres undefined) | 10.1 µM (inactive) | 22.9 µM (inactive) | 0.0612 µM (active) | 28.4 µM (inactive) | 18.9 µM (inactive) | 30.9 µM (inactive) | 42.8 µM (inactive) | 43.6 µM (inactive) | 55.7 µM (inactive) | 35.6 µM (inactive) | 83.4 µM (inactive) | 31.3 µM (inactive) | 59.2 µM (inactive) | 54.5 µM (inactive) | 29.7 µM (inactive) |
| CC(=O)Nc1ccc(Cl)c(Cl)c1 | > 100 µM (inactive) | > 100 µM (inactive) | > 100 µM (inactive) | > 100 µM (inactive) | > 100 µM (inactive) | > 100 µM (inactive) | > 100 µM (inactive) | > 100 µM (inactive) |  | > 100 µM (inactive) | > 100 µM (inactive) | > 100 µM (inactive) | > 100 µM (inactive) |  | > 100 µM (inactive) |
